Measurements reported in patent US6469055B2, “Compositions and methods for treatment of neurological disorders and neurodegenerative diseases” (Massachusetts Institute of Technology, priority 1996, dated 2002).
“Also recorded” adds a separate entry of the source.

Key:
[1] = tested on: APP holoprotein; experiment: Cell-associated APP (APP holoprotein), Western blot, cultured cortical astrocytes; conditions: DFU or DFP 10^-9-10^-3 M, 1 h, cultured astrocytes
Method: Astrocytes are isolated from cortices from postnatal rats. […] In brief, dissected cortices were dissociated by trypsinization and trituration through a flame-polished Pasteur pipette. Cells were plated onto poly-L-lysine coated 35- or 100 mm culture dishes at densities of about 10-25 cells/mm^2. […] Media are changed twice weekly. […] Pharmacological manipulations are performed in serum-free media on 7-14 DIV confluent astrocytes.
To detect cell-associated protein (APP or GFAP), astrocytes from 35 mm dishes are scraped in lysis buffer (60 mM Tris/HCl, 4% SDS, 20% glycerol, 1 mM dithiothreitol), ultrasonicated and boiled for 5 min. The total amount of cell protein per dish, estimated using the bicinchoninic acid assay, is not altered by pharmacological treatments. Bromphenol blue (0.1%) is added to each sample and equal amounts of protein (˜75 mg/lane) are loaded on 10% SDS-polyacrylamide gels.
The amount of media or cell protein loaded for sodium dodecyl sulfate-polyacrylamide gel electrophoresis (10-20% SDS PAGE; Bio-Rad) was normalized for the amount of protein per sample. […] After 2×10 min rinses in TBST, the membranes were incubated in TBST containing an appropriate antibody. Monoclonal antibodies 22C11 and GFAP (both from Boehringer-Mannheim) were used to detect the N-terminus of APP and glial fibrillary acidic protein respectively; antisera R37 and R98 (gifts of Dr. F. Kametani, Tokyo Institute of Psychiatry) were used to detected the C-terminus and KPI motifs of APP respectively; antiserum C8 (gift of Dr. D. Selkoe, Women's Hospital, Harvard Medical School, Cambridge, Mass.) was used to detect the C-terminus of APP.
After an overnight incubation, membranes were rinsed in TBST before being treated for 1h with a peroxidase-linked secondary antibody. After several rinses in TBST, protein bands were visualized on Kodak X-AR films by an enhanced chemiluminescence method (Amersham). Optical densities of the protein bands were quantitated by laser scanning densitometry (LKB, Bromma, Sweden), and normalized to the densities of those bands generated under control conditions.

[2] = tested on: secreted APP (APPs); experiment: APPs secretion into the media of cultured cortical astrocytes, Western blot; assay type: cell-based, rat; conditions: DFU or DFP 10^-9-10^-3 M, 1 h, cultured astrocytes
Method: Astrocytes are isolated from cortices from postnatal rats. […] Media are changed twice weekly.
To detect secreted APP, culture media was collected after drug treatments and phenylmethylsulfonyl fluoride was added to a final concentration of 2 mM. The media samples were then applied to Sephadex PD-10 desalting columns (Pharmacia) and eluted with distilled water. Column eluates were frozen and dried by vacuum centrifugation. The lyophilized proteins were reconstituted in 25 μL water followed by 25 μL of 2X Laemmli gel loading buffer, and boiled for 5 min.
Assays of PI hydrolysis are conducted as previously reported. Also, measurements of APPs are conducted as previously reported.

[3] = tested on: APP holoprotein; experiment: APP holoprotein in cultured neurons; assay type: cell-based; conditions: DFP
From the text: (§1) Treatment of cultured astroyctes with DFU (A) or of cultured neurons with DFP (B) promotes APPs secretion and decreases the levels of amyloidogenic APP holoprotein in cultured.

[4] = tested on: secreted APP (APPs); experiment: APPs secretion from cultured neurons; assay type: cell-based; conditions: DFP
From the text: as §1

[5] = tested on: serotonin release; experiment: Serotonin release in the striatum by microdialysis; assay type: in vivo, rat; conditions: rats, chronic treatment with PCA
[6] = tested on: APP holoprotein; experiment: Brain APP holoprotein in rats injected with p-chloroamphetamine (PCA) with or without aspirin; assay type: in vivo, rat; conditions: rats injected with PCA; striatum or hippocampus
From the text: Neuronal injury can stimulate prostaglandin production., and thereby stimulate APP overexpression. We injected rats with para-chloroamphetamine (PCA), a neurotoxin which causes a loss of serotoninergic terminals in the brain.

[7] = tested on: APP mRNA; conditions: dibutyryl cAMP in serum-containing medium, rat glioma cells; cited from earlier work
[8] = 100-150 mg indomethacin, 6 months, mild or moderately impaired Alzheimer's disease patients; cited from earlier work

With `CC(C)OC1=C(c2ccc(S(C)(=O)=O)cc2)C(C)(C)OC1=O` [DFP, 5,5-dimethyl-3-isopropyloxy-4-(4′-methylsulfonylphenyl)-2(5H)-furanone] the “levels of cellular APP holoprotein” value [1] was “decreases”, the “secretion of soluble APPs” value [2] was “increases” and the “levels of amyloidogenic APP holoprotein” value [3] was “decreases”. For the same molecule, the APPs secretion [4] was “promotes”.
With `CC(N)Cc1ccc(Cl)cc1` (stereo not drawn) [PCA, para-chloroamphetamine] the “serotonin release in the striatum” value [5] was “compromised”, the “KPI-containing APP isoforms in brain tissue” value [6] was “increased” and the “brain APP holoprotein levels” value [6] was “increased; also recorded: significant increases”.
For `CCCC(=O)Nc1ncnc2c1ncn2[C@@H]1O[C@@H]2COP(=O)(O)O[C@H]2[C@H]1OC(=O)CCC` [dibutyryl cAMP], the “APP mRNA” value [7] is given as “increased”.
In the case of `COc1ccc2c(c1)c(CC(=O)O)c(C)n2C(=O)c1ccc(Cl)cc1` [indomethacin], the “cognitive decline versus placebo, battery of cognitive tests” value [8] is listed as “appeared to protect”.
